The values below come from patent US11660300B2, “Method of maintaining oral health in animals” (Boehringer Ingelheim Animal Health USA Inc., priority 2006, dated 2023).

Each structure is given as a SMILES string.

Holding throughout (assay type): in vivo
One test has as its system calculus formation. Nature of the test: Calculus formation in beagle dogs given delmopinol dog snack. Conditions: for Number of teeth with calculus on the buccal surfaces of the teeth of the upper jaw: dogs 1-4 and Sum. Here is the method:
(§1) A study was carried out to investigate the effect of dog snacks containing delmopinol on gingivitis and calculus formation in beagle dogs. Eight female dogs were used in the study. […] During a pre-experimental period of four weeks, the teeth in the upper jaws of all dogs were scaled and polished professionally with a rubber cup, pumice and water, on a weekly basis. The teeth of the upper jaws were also thoroughly brushed with a toothbrush and water, for 2 minutes daily. The teeth in the lower jaws were not cleaned. During this pre-experimental period the dogs were fed a soft gingivitis-inducing diet. Using these procedures, two different clinical conditions prevailed in the dogs at the end of the pre-experimental period: in the upper jaw the gingiva was clinically healthy while in the lower jaws gingivitis prevailed. […] In the upper jaws, the presence of plaque and gingivitis was measured at the buccal surfaces of canines, first, second, third, fourth premolars and first molars. In the lower jaws the measurements were undertaken at the buccal surfaces of canines and first molars, in total […] were examined clinically. 12 surfaces were clinically healthy prior to the experimental period and 4 surfaces were not maintained with oral hygiene measures. All experimental procedures, (except the tooth brushing during the pre-experimental period) were performed with the dogs anaesthetized by intravenous Pentothal (Abbot, Belgium). […] The various measurements were taken on days 0, 14 and 28. Clinical photos were taken of the upper jaws at the same occasions as the measurements. Presence or absence of calculus was noted on the buccal surfaces of the teeth in the upper jaws.

Another test has as its system gingivitis. The test can be described thus: Bleeding on probing (gingivitis) in beagle dogs given delmopinol dog snack. Conditions: for Number of sites with gingival bleeding at the buccal surfaces: dogs 1-4 and Sum. Here is the method:
as §1, with “measurements. Bleeding on probing was scored according to Löe, H and Silness, J (1963) Periodontal disease in pregnancy. Prevalence and severity. Acta Odontologica Scandinavia 21, 533-551.” for “measurements.”, “Presence” for “Presence or absence”, “of gingivitis” for “of calculus”, “was registered if bleeding occurred within 20 seconds following gentle probing of” for “was noted on”, “buccal gingival margin.” for “buccal surfaces of the teeth in the upper jaws.”

The test system of the next test is dental plaque. The test can be described thus: Presence of dental plaque (erythrosine staining) in beagle dogs given delmopinol dog snack. The settings on record: for Number of sites with presence of dental plaque on the buccal surfaces: upper jaw (UJ), dogs 1-4 and Sum. The procedure:
A study was carried out to investigate the effect of dog snacks containing delmopinol on gingivitis and calculus formation in beagle dogs. Eight female dogs were used in the study. […] During a pre-experimental period of four weeks, the teeth in the upper jaws of all dogs were scaled and polished professionally with a rubber cup, pumice and water, on a weekly basis. The teeth of the upper jaws were also thoroughly brushed with a toothbrush and water, for 2 minutes daily. The teeth in the lower jaws were not cleaned. During this pre-experimental period the dogs were fed a soft gingivitis-inducing diet. Using these procedures, two different clinical conditions prevailed in the dogs at the end of the pre-experimental period: in the upper jaw the gingiva was clinically healthy while in the lower jaws gingivitis prevailed. […] In the upper jaws, the presence of plaque and gingivitis was measured at the buccal surfaces of canines, first, second, third, fourth premolars and first molars. In the lower jaws the measurements were undertaken at the buccal surfaces of canines and first molars, in total […] were examined clinically. 12 surfaces were clinically healthy prior to the experimental period and 4 surfaces were not maintained with oral hygiene measures. All experimental procedures, (except the tooth brushing during the pre-experimental period) were performed with the dogs anaesthetized by intravenous Pentothal (Abbot, Belgium). […] The various measurements were taken on days 0, 14 and 28. Clinical photos were taken of the upper jaws at the same occasions as the measurements. The presence of plaque was scored following staining of the teeth with erythrosine dye. Plaque was noted if stained dental plaque was in contact with the buccal gingival margin.

For the molecule `CCCC(CCC)CCCC1COCCN1CCO` (stereo not drawn) [Delmopinol, 3-(4-propyl-heptyl)-4-(2-hydroxyethyl)morpholine], the “Number of teeth with calculus on the buccal surfaces of the teeth of the upper jaw” value is reported as 0 teeth with calculus formation (Day 0 (baseline), n = 48 measured sites); “None” with calculus formation (Day 0 (baseline), n = 48 measured sites, listed as delmopinol); 6 teeth in the test with calculus formation (Day 14, n = 48 measured sites); 37 teeth with calculus formation (Day 28, n = 48 measured sites). The “calculus formation versus control” value in the test on calculus formation (in the presence of dental plaque and with a calculus-promoting soft diet) is recorded as “strongly reduced”. The “Number of sites with gingival bleeding at the buccal surfaces” value in the test on gingivitis (Day 0 (baseline), lower jaw (LJ), n = 16) is on record as 15 sites; with gingivitis (Day 0 (baseline), upper jaw (UJ), n = 48) it was “one”; in the test with gingivitis (Day 14, lower jaw (LJ), n = 16), “five”; in the test on gingivitis (Day 14, upper jaw (UJ), n = 48), 13 sites; with gingivitis (Day 28, lower jaw (LJ), n = 16) it was 12 sites; in the test with gingivitis (Day 28, upper jaw (UJ), n = 48), 21 sites. For the same molecule, the “reduction of established gingivitis” value in the test with gingivitis (delmopinol added in the snack, snack alone 50%, lower jaw, day 0 to day 14) is on record as 69%. Also, the “increase of inflammation after stopping pre-experimental oral hygiene, versus control group” value in the test with gingivitis (paired t-test p=0.05) is “significantly less”. Further, the “Number of sites with presence of dental plaque on the buccal surfaces” value with dental plaque (Day 0 (baseline), n = 48 sites in sum) was 0 sites; with dental plaque (Day 0 (baseline), n = 48 sites in sum, listed as delmopinol), “plaque free”; in the test on dental plaque (Day 28 (14 days after last snack), n = 48), “all teeth”. Besides, the “reduction in the presence of dental plaque relative the control dogs” value in the test with dental plaque (Day 14, upper jaw) is “around 20%”. In addition, in the test on dental plaque (snacks with or without the tested component), the plaque accumulation result is recorded as “did not alter”.
